According to article PMC12096829, “Maltodextrin transport in the extremely thermophilic, lignocellulose degrading bacterium Anaerocellum bescii (f. Caldicellulosiruptor bescii)” (Journal of Bacteriology, 2025):
Several values for one entry are separate records, joined by “and”; a condition that tells them apart may be missing. Equal entries are not always repeated. Where two headings read alike, the source gives them in different places.

Columns and labels:
Athe_2310 [1] = molecular target: T1, Athe_2310 (Anaerocellum bescii, UniProt A0ABY1S743); experiment: DSC thermal shift of Athe_2310 with ɑ-glucan substrates; type: binding; conditions: 5 mM sugar, 50 mM HEPES, 300 mM NaCl pH 7.0; for Tm: Athe_2310 + sugar, 2.5 mg/mL protein; for ΔTm: Athe_2310, |Tm,holo − Tm,apo|
T1 sequence (A0ABY1S743 entry or part of it): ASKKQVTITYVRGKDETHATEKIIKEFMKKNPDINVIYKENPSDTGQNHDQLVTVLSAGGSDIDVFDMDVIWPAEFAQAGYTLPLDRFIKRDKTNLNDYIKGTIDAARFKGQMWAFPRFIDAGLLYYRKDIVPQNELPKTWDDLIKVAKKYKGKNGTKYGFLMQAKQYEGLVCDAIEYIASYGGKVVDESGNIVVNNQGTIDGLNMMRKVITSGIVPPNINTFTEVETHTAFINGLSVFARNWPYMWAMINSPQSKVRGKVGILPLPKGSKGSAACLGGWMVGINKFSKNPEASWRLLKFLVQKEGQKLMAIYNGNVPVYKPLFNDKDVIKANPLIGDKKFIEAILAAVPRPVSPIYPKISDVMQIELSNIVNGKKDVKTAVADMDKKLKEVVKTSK
Description: (§1) In DSC, proteins are heated at a constant rate to induce thermal denaturation. This can be measured by an increase in the protein’s specific heat capacity Cp(T) as a function of temperature. The melting temperature Tm is defined as the temperature at which the protein attains its maximum heat capacity and becomes fully denatured ([46]). However, the presence of their cognate ligands can induce substrate-binding proteins to adopt a more thermally stable closed conformation, resulting in an increase in Tm ([47]). This ΔTm = |Tm,holo − Tm,apo| difference can be used to determine differential substrate specificity, as preferred ligands that are more tightly bound will yield larger ΔTm values. […] However, other short ɑ-glucans trehalose (ΔTm = 7.23 °C) and maltotriose (ΔTm = 6.63 °C) also yield substantial melting temperature differences. Melting temperature differences are subtler with longer oligosaccharides maltotetraose (ΔTm = 1.57 °C), maltopentaose (ΔTm = 0.95 °C), and maltoheptaose (ΔTm = 0.26 °C) (Fig. 4a). However, as binding of maltose to E. coli MBP is known to increase protein melting temperature by approximately 8 °C, depending on pH, it is unlikely binding is taking place between Athe_2310 and longer maltodextrins (G4–G7) due to their much smaller ΔTm values in comparison ([47], [48]).
(§2) DSC measurements using a MicroCal PEAQ-DSC (Malvern Panalytical) were performed on Athe_2310 and Athe_2574 in combination with a variety of ɑ-glucans: trehalose (G2), maltose (G2), maltotriose (G3), maltotetraose (G4), maltopentaose (G5), and maltoheptaose (G7). The scan rate was set to […], with a max temperature of 130 °C. Protein was mixed with each sugar, yielding final concentrations of 2.5 mg/mL of protein and 5 mM of sugar. A total of 50 mM HEPES, 300 mM NaCl, pH 7.0, was used as the reference buffer. The heat capacity Cp was plotted against temperature and then normalized by the respective run’s maximum Cp value ( Cp,max ). We defined the melting temperature Tm as the temperature corresponding to Cp,max=Cp(T=Tm) . The melting temperature difference ΔTm=|Tm,holo-Tm,apo| is defined as the absolute difference in melting temperature between the melting temperature of a protein-sugar mix and the same protein with no sugar present.

Athe_2574 [2] = molecular target: T2, Athe_2574 (Anaerocellum bescii, UniProt A0ABY1S640); experiment: DSC thermal shift of Athe_2574 with ɑ-glucan substrates; type: binding; conditions: for Tm: Athe_2574 + sugar, 2.5 mg/mL protein; for Tm / ΔTm: 5 mM sugar, 50 mM HEPES, 300 mM NaCl pH 7.0; for ΔTm: |Tm,holo − Tm,apo|
T2 sequence (A0ABY1S640 entry or part of it): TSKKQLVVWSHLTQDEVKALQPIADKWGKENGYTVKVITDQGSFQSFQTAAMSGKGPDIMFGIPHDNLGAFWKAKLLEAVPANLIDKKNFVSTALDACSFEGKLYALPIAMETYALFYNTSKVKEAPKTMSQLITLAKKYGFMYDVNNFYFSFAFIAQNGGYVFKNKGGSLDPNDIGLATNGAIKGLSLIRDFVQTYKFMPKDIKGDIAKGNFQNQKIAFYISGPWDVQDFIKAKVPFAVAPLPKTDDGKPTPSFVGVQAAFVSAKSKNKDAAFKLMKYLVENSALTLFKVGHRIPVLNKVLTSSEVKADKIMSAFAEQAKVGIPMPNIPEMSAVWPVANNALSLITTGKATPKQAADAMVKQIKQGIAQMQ
Description: as §1, §2

Athe_2574 [3] = molecular target: T2, Athe_2574; experiment: biochemical; type: binding; conditions: for TΔS / ΔG / ΔH / Ka / n (stoichiometry) / Kd: ITC 25 °C; for Ka: Ka=1/Kd; for n (stoichiometry): single-site binding model; for Kd: 50 mM HEPES
Procedure: (§3) Proteins were dialyzed into the following buffer: 50 mM HEPES, 300 mM NaCl, pH 7.0 via 10 kDa MWCO PES filter 20 mL Spin-X Concentrators (Corning). Measurements were performed at 25 °C using a MicroCal PEAQ Isothermal Titration Calorimeter (Malvern Panalytical). A standard titration experiment consisted of the protein sample at 50 µM and the sugar ligand at 500 µM. The stirring was set at 750 rpm. The 280 µL sample of protein was injected with a priming aliquot of 0.2 µL of sugar ligand, followed by 19 successive injections of 2.0 µL at 120 seconds intervals. Integrated heat effects were determined by non-linear regression using a single-site binding model (Microcal PEAQ-ITC Analysis). The fitted isotherms yield the binding dissociation constant and other thermodynamic parameters calculated using the differential form of the Gibbs Free Energy equation ΔGd=-RTln(Kd) . The slope of the binding isotherm at the equivalence point was used to determine the dissociation constant Kd . The association rate constant Ka is defined as Ka=1/Kd .

[4] = test system: Athe_2310_Mut1 (D69F G279F G278F); experiment: DSC screen of mutant Athe_2310_Mut1 with maltodextrins; type: binding, Anaerocellum bescii; conditions: Fig. S5, result in words
Description: We constructed mutant variants Athe_2310_Mut1 (D69F G279F G278F) and Athe_2574_Mut1 (G253F V254F P61W N63F D64F M322A W332A) that each contain point substitutions on residues predicted to be critical for both hydrophobic and hydrophilic contacts. In other words, the mutation of these residues is predicted to confer energetic penalties sufficiently large to prevent substrate binding. […] Similarly, Athe_2574_Mut1, with seven-point mutations due to its greater number of subsites, can no longer recognize maltodextrin substrates of any length (Fig. S6).
as §2, with “The melting temperature difference ΔTm=|Tm,holo-Tm,apo| is defined as the absolute difference in melting temperature between the melting temperature of a protein-sugar mix and the same protein with no sugar present.” left out

Athe_2310 [5] = molecular target: T1, Athe_2310; experiment: ITC of Athe_2310 with ɑ-glucan substrates; type: binding; conditions: for Ka: Ka=1/Kd; for n (stoichiometry): single-site binding model
Procedure: as §3, with “Measurements were performed at 25 °C using a MicroCal PEAQ Isothermal Titration Calorimeter (Malvern Panalytical).” left out, “.” for “. The association rate constant Ka is defined as Ka=1/Kd .”

E. coli MBP = test system: E. coli MBP; design: method as in PMID 9007986, doi:10.1007/s00723-020-01232-y; conditions: depending on pH; cited from earlier work
[6] = Athe_2310, ITC 25 °C, 50 mM HEPES, 300 mM NaCl pH 7.0, read-out: Kd
[7] = 300 mM NaCl pH 7.0, read-out: Kd

Compound	Tm (Athe_2310 [1])	Tm (Athe_2574 [2])	TΔS (Athe_2574 [3]) [kcal/mol]	ΔG (Athe_2574 [3]) [kcal/mol]	ΔH (Athe_2574 [3]) [kcal/mol]	Ka (Athe_2574 [3]) [M⁻¹]	n (stoichiometry) (Athe_2574 [3])	binding to Athe_2310_Mut1 [4]	ΔTm (Athe_2310 [1]) [°C]	TΔS (Athe_2310 [5]; Athe_2310, ITC 25 °C) [kcal/mol]	ΔG (Athe_2310 [5]; Athe_2310, ITC 25 °C) [kcal/mol]	ΔH (Athe_2310 [5]; Athe_2310, ITC 25 °C) [kcal/mol]	Kd (Athe_2310 [5]; [6]) [nM]	Ka (Athe_2310 [5]; Athe_2310, ITC 25 °C) [M⁻¹]	n (stoichiometry) (Athe_2310 [5]; Athe_2310, ITC 25 °C)	ΔTm (Athe_2574 [2]; Athe_2574) [°C]	Kd (Athe_2574 [3]; [7]) [nM]	also measured
OC[C@H]1O[C@H](O[C@H]2[C@H](O)[C@@H](O)[C@@H](O[C@H]3[C@H](O)[C@@H](O)[C@@H](O[C@H]4[C@H](O)[C@@H](O)[C@@H](O[C@H]5[C@H](O)[C@@H](O)[C@@H](O[C@H]6[C@H](O)[C@@H](O)[C@@H](O[C@H]7[C@H](O)[C@@H](O)C(O)O[C@@H]7CO)O[C@@H]6CO)O[C@@H]5CO)O[C@@H]4CO)O[C@@H]3CO)O[C@@H]2CO)[C@H](O)[C@@H](O)[C@@H]1O (stereo partly drawn) [MalG7, D-Maltoheptaose]	102.06 °C	105.04 °C	-2.69	-9.98	-7.29 ± 0.04	2.0492e+07	0.82 ± 0.00											Tm (Athe_2310 [1]; listed as Maltoheptaose): 102.1 °C; Tm (Athe_2574 [2]; listed as Maltoheptaose): 105.0 °C; Kd (Athe_2574 [3]; Kd, 300 mM NaCl pH 7.0): 49 nM and 50 nM
OC[C@H]1O[C@H](O[C@H]2[C@H](O)[C@@H](O)[C@@H](O[C@H]3[C@H](O)[C@@H](O)C(O)O[C@@H]3CO)O[C@@H]2CO)[C@H](O)[C@@H](O)[C@@H]1O (stereo partly drawn) [MalG3, D-Maltotriose]	108.42 °C	101.47 °C	20.4	-4.48	-24.80 ± 2410	1900	1.57 ± 85.80	can no longer bind	6.63	-4.85	-7.21	-2.36 ± 0.38	5210 ± 2980	192000	0.79 ± 0.06	8.72	523000	Tm (Athe_2310 [1]; listed as Maltotriose): 108.4 °C; Tm (Athe_2574 [2]; listed as Maltotriose): 101.5 °C
OC[C@H]1O[C@H](O[C@H]2O[C@H](CO)[C@@H](O)[C@H](O)[C@H]2O)[C@H](O)[C@@H](O)[C@@H]1O [Trehalose, D-Trehalose Dihydrate]	109.02 °C	92.8 °C and 92.69 °C							7.23	-4.45	-7.63	-3.18 ± 0.14	2590 ± 500	386000	0.96 ± 0.02	0.1		binding to Athe_2574 judged from DSC melting profile (Athe_2574 [2]; Athe_2574, result in words): absence of binding
OC[C@H]1O[C@H](O[C@H]2[C@H](O)[C@@H](O)[C@H](O)O[C@@H]2CO)[C@H](O)[C@@H](O)[C@@H]1O [Maltose, D-Maltose Monohydrate]	110.9 °C and 110.85 °C	97.8 °C						can no longer bind		-3.85	-7.38	-3.53 ± 0.18		254000	0.76 ± 0.02			Kd (Athe_2310 [5]): 3930 ± 780 nM; ITC enthalpy changes of binding / fit of Kd and n (Athe_2574 [3]; result in words): too small to fit meaningful; increase of protein melting temperature on binding (E. coli MBP): approximately 8 °C
OC[C@H]1O[C@H](O[C@H]2[C@H](O)[C@@H](O)[C@@H](O[C@H]3[C@H](O)[C@@H](O)[C@@H](O[C@H]4[C@H](O)[C@@H](O)C(O)O[C@@H]4CO)O[C@@H]3CO)O[C@@H]2CO)[C@H](O)[C@@H](O)[C@@H]1O (stereo partly drawn) [MalG4, D-Maltotetraose]	103.36 °C	104.26 °C	0.664	-9.24	-9.90 ± 0.19	5.848e+06	0.98 ± 0.01										170 ± 40	Tm (Athe_2310 [1]; listed as Maltotetraose): 103.4 °C; Tm (Athe_2574 [2]; listed as Maltotetraose): 102.7 °C
OC[C@H]1O[C@H](O[C@H]2[C@H](O)[C@@H](O)[C@@H](O[C@H]3[C@H](O)[C@@H](O)[C@@H](O[C@H]4[C@H](O)[C@@H](O)[C@@H](O[C@H]5[C@H](O)[C@@H](O)C(O)O[C@@H]5CO)O[C@@H]4CO)O[C@@H]3CO)O[C@@H]2CO)[C@H](O)[C@@H](O)[C@@H]1O (stereo partly drawn) [MalG5, D-Maltopentaose]	102.73 °C	104.93 °C	-3.03	-9.56	-6.52 ± 0.07	9.901e+06	0.90 ± 0.00										100 ± 10	Tm (Athe_2310 [1]; listed as Maltopentaose): 102.7 °C; Tm (Athe_2574 [2]; listed as Maltopentaose): 104.9 °C
